Test results taken from patent US5482967A, “Condensed heterocyclic compounds, their production and use” (Takeda Chemical Industries, Ltd., priority 1992, dated 1996).

Legend:
[1] = target: T1, acyl-CoA:cholesterol acyl transferase (ACAT) (Rattus norvegicus, UniProt Q7TQM4); experiment: Inhibitory action against acyl-CoA:cholesterol acyl transferase (ACAT), formation of labeled cholesterol ester, small intestine mucosal microsome fraction; type: biochemical, male Sprague-Dawley rat; conditions: 10^-6 M; read-out: ACAT Inhibitory Rate (%)
T1 construct: small intestine mucosal microsome fraction of a 6-week-old male Sprague-Dawley rat; from tissue; host or cells: rat small intestine mucosa, microsome fraction
T1 sequence (Q7TQM4 1-524): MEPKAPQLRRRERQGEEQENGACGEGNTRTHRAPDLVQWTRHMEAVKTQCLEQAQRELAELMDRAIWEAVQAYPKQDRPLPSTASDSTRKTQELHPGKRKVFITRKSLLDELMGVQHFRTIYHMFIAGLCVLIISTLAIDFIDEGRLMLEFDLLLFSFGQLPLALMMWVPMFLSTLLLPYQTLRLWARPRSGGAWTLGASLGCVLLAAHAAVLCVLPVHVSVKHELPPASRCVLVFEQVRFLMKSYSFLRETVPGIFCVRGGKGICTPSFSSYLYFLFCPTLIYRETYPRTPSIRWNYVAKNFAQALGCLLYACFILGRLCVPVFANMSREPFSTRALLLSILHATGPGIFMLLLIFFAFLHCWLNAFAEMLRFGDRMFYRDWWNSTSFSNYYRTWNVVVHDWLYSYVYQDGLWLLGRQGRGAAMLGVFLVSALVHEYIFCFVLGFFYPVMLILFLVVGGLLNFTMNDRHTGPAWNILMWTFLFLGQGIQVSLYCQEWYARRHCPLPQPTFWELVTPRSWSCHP
Protocol: An ACAT enzyme preparation was prepared from a small intestine mucosal microsome fraction of a 6-week-old male Sprague-Dawley rat, previously fasted for 20 hours, in accordance with the method described by Heider et al. in the Journal of Lipid Research, Vol. 24, page 1127 (1982).
ACAT activity was determined by measuring the amount of labeled cholesterol ester produced from [1-^14 C]-oleoyl-CoA and endogenous cholesterol, in accordance with the method of Helgerud et al. [Journal of Lipid Research, Vol. 22, page 271 (1981)].

[2] = Hypocholesterolemic activity (cholesterol-lowering activity) in hypercholesterolemic mice on high cholesterol-cholic acid diet; type: in vivo, ICR mice; conditions: vs control groups; for Reduction % HPL: heparin precipitating lipoproteins; for Reduction % cholesterol: serum
Protocol: Groups of 6 ICR mice (2 subgroups of 3 mice) were made hypercholesterolemic by being fed a high cholesterol-cholic acid diet for 7 days and administered with test compounds orally on the last two days. One-half of the total does was given on day 6 followed by the other half on day 7. After fasting overnight (16 hours after the last dose), the animals were sacrificed and sera were collected together for the each subgroup for measuring the levels of cholesterol and heparin precipitating lipoproteins (HPL). Both cholesterol and HPL levels were measured with autonalyzer by the enzymatic CHOD-PAP method for the former and by the turbidimetric method of Shurr et. al. [in C. E. Dau ed. Atherosclerosis Drug Discovery, Plenum Publishing, New York, pp. 215-229 & 231-249, 1976.] for the latter.

SMILES | inhibition at 1 µM [1] [%] | Reduction % HPL ([2]; 3 mg/kg po) [%] | Reduction % cholesterol ([2]; 3 mg/kg po) [%] | Reduction % HPL ([2]; 10 mg/kg po) [%] | Reduction % cholesterol ([2]; 10 mg/kg po) [%]
COc1ccccc1-c1c(CC(=O)Nc2c(OC)cccc2OC)oc(=O)c2ccccc12 [Example 74, N-(2,6-Dimethoxyphenyl)-4-(2-methoxyphenyl)-1-oxo-1H-2-benzopyran-3-acetamide] | 99.5 | 32 | 29 | 37 | 33
COc1cccc(OC)c1NC(=O)Cc1c(-c2ccccc2C)c2cc(Cl)ccc2oc1=O [Example 84, 6-Chloro-N-(2,6-dimethoxyphenyl)-4-(2-methylphenyl)-2-oxo-2H-1-benzopyran-3-acetamide] | 99.5 | 28 | 15 | 47 | 33
CC(C)c1cccc(C(C)C)c1NC(=O)Cc1oc(=O)c2ccc(Cl)cc2c1-c1ccccc1 [Example 48, N-[2,6-Bis(1-methylethyl)phenyl]-6-chloro-1-oxo-4-phenyl-1H-2-benzopyran-3-acetamide] | 99.2 | 26 | 27 | 39 | 32
Cc1ccccc1-c1c(CC(=O)Nc2c(C(C)C)cccc2C(C)C)c(=O)oc2ccc(Cl)cc12 [Example 82, N-[2,6-Bis(1-methylethyl)phenyl]-6-chloro-4-(2-methylphenyl)-2-oxo-2H-1-benzopyran-3-acetamide] | 99.3 | 37 | 31 | 50 | 40
COc1ccccc1-c1c(CC(=O)Nc2c(C(C)C)cccc2C(C)C)oc(=O)c2ccccc12 [Example 56, N-[2,6-Bis(1-methylethyl)phenyl]-4-(2-methoxyphenyl)-1-oxo-1H-2-benzopyran-3-acetamide] | 98.1 | – | – | – | –
